According to PMC10718076, “1,2-Disubstituted bicyclo[2.1.1]hexanes as saturated bioisosteres of ortho-substituted benzene” (Chemical Science, 2023):
Like-named read-outs stand apart in the source and are kept apart here.

What was measured:
in vitro = settings: both, human
[1] = both, human, pH 7.4

microsomal CLint at 2 µM (in vitro; microsomes, pH 7.4): 173 µL/min/mg
microsomal CLint at 2 μM (in vitro; microsomes, pH 7.4): 272 µL/min/mg
k el at 2 µM (in vitro; pH 7.4, kel): 0.0012 s⁻¹
k el at 2 μM (in vitro; pH 7.4, kel): 0.00123 s⁻¹
microsomal CLint at 2 μM (in vitro; s9, pH 7.4): 178 µL/min/mg
% Remaining, Mean of 2 ([1]; microsomes, 25 min, 2 µM): 9%
% Remaining, Mean of 2 ([1]; s9, 25 min, 2 μM): 9%
SMILES: O=C(O)Cc1ccccc1Nc1c(Cl)cccc1Cl [Diclofenac]
